pIC50: −log10 of the molar value. The source made the active and inactive calls. The calls are words filed in the database; no cut-off is given here.

For the first test, the system named is HEK293. Put plainly: Inhibition of Wnt signalling in HEK293 cells harbouring TCF/beta-catenin luciferase reporter gene assessed as TCF/beta-catenin transcriptional activity at 30 to 60 uM by TOPFlash luciferase assay. In kind it is cell-based. The following applies: Homo sapiens, dose 30-60 µM.
Regarding `Cc1cc2c(c(=O)o1)[C@H]1C[C@](C)(CC[C@@H]1C(C)C)O2`, the outcome was Active.
On the same count and under the same terms, the same measure for `Cc1cc(O)cc(=O)o1`: “inactive”; for `CC(C)[C@H]1CC[C@]2(C)C[C@H]1c1c(cc(/C=C/c3ccccc3)oc1=O)O2`: “Active”.
On the same count and under the same terms, the same measure for `CC1=CC(=O)C(C(C)C)CC1` (racemic): “inactive”; for `CC(C)[C@H]1CC[C@@]2(C)C[C@@H]1c1c(cc(/C=C/c3ccccc3)oc1=O)O2`: “Active”.
Same read-out and setting: the same measure for `CC(C)[C@@H]1CC[C@@]2(C)C[C@@H]1c1c(cc(/C=C/c3ccccc3)oc1=O)O2`: “Active”; for `Cc1cc2c(c(=O)o1)[C@H]1C[C@](C)(CC[C@H]1C(C)C)O2`: “Active”.
Take `COc1cc(/C=C/c2ccccc2)oc(=O)c1`: the result was inactive.
On the same count and under the same terms, next, `CC(C)[C@H]1CC[C@@]2(C)C[C@@H]1c1c(cc(/C=C/c3cccs3)oc1=O)O2`: “Active”; `COc1cc(O)c(C(=O)/C=C/c2ccccc2)c2c1[C@@H]1[C@@H](C(C)C)CC[C@](C)(O)[C@@H]1O2`: “inactive”.

The subject of another test is HT-29. Kind of test: Cytotoxicity against human HT-29 cells assessed as cell viability at 1.563 to 50 uM measured after 72 hrs by plate reader method. It counts as functional, cell-based. Particulars: HT-29, 72 h.
Broadly, the pIC50 is the IC50 on a negative log10 scale, so that one unit is a factor of ten. Take `CC(C)[C@H]1CC[C@@]2(C)C[C@@H]1c1c(cc(/C=C/c3ccccc3)oc1=O)O2`: the pIC50 is 5.09.
Same read-out and setting: the same measure for `CC(C)[C@@H]1CC[C@@]2(C)C[C@@H]1c1c(cc(/C=C/c3ccccc3)oc1=O)O2`: 4.49; for `O=C1[C@H](Cc2ccc(O)cc2)N2C(=O)CCN(C(=O)NCc3ccccc3)[C@H]2CN1Cc1cccc2ccccc12`: 4.97.

Still in this test, the particulars now being: dose 1.563-50 µM.
For `CC(C)[C@H]1CC[C@@]2(C)C[C@@H]1c1c(cc(/C=C/c3cccs3)oc1=O)O2`, the result was Active.

Source of the values: ChEMBL document CHEMBL4811288, “Linderapyrone: A Wnt signal inhibitor isolated from Lindera umbellata” (Bioorg Med Chem Lett, 2021).
